Values quoted from earlier work as cited in paper PMC4895201 (Journal of natural products, 2009).

How the values were obtained:
[1] = test system: various solid cell lines
[2] = test system: breast and prostate xenografts; details: compared with KF (3)
[3] = test system: epidermal growth factor receptor (ErbB family); details: early research

| Substance | antitumor activity, in vitro and in vivo [1] | in vivo efficacy against breast and prostate xenografts [2] | blockade of epidermal growth factor receptor (ErbB family) [3] |
| --- | --- | --- | --- |
| (4S)- methylhexanoic kahalalide F [isoKF (4)] | significant in vitro and in vivo antitumor activity against various solid cell lines | enhanced efficacy against breast and prostate xenografts |  |
| kahalalide F [KF (3)] | significant in vitro and in vivo antitumor activity against various solid cell lines |  | blocked the epidermal growth factor receptor (ErbB family) |
